What was measured:
Format in all cases: cell-based
DU-145 = test: Cell growth inhibition assay, prostate cancer cell line DU-145; conditions: Homo sapiens, DU-145 prostate cancer cell line
Description: (§1) The inhibitory effects of the compounds of the present invention against the growth of cancer cells were evaluated as shown below. The cancer cell lines including stomach cancer cell line (AGS), breast cancer cell lines (MDA-MB-231, MDA-MB-468, and BT-549), prostate cancer cell lines (LNCaP and DU-145), colon cancer cell line (HCT116), ovarian cancer cell line (SW626), liver cancer cell line (Hep3B), kidney cancer cell line (ACHN), lung cancer cell line (NCI-H23) and blood cancer cell lines (HEL92.1.7 and U266) were cultured under the protocol provided by each supplier. A medium supplemented with 10 ng/mL of IL-6 was used for LNCaP, a prostate cancer cell line, when treated with a drug. Each type of cells to be used in experiments were sub-cultured in a 96-well plate by counting the exact number of cells using Tali™ Image-based Cytometer (Life Technologies). In a 96-well plate, AGS, HCT116, and DU-145 were employed with 3,000 cells/well; NCI-H23, SW626, Hep3B, ACHN, BT-549, MDA-MB-231, HEL92.1.7, and U266 were employed with 5,000 cells/well; and LNCaP and MDA-MB-468 were employed with 10,000 cells/well. The cells were treated with the compounds listed in Examples which were diluted in various concentrations. Upon completion of the compounds treatment, AGS, HCT116, SW626, DU145, NCI-H23, Hep3B, ACHN, BT-549, LNCaP, HEL92.1.7, and U266 cells were cultured at 37° C. under 5% CO2 for from 72 to 96 hours, and MDA-MB-231 and MDA-MB-468 cells were cultured at 37° C. in air for from 72 to 96 hours. Subsequently, the cells were observed under microscope and drug precipitation and particular findings were investigated and recorded. And then, the 96-well plate was placed at room temperature for 30 minutes, added with 20 μL/well of CellTiter-Glo solution (Cat No. G7573, Promega) and shaken for 10 minutes, followed by being subjected to the measurement using PHERAstar™ microplate reader (BMG LABTECH) according to the supplier's general luminometer protocol. Wells where only culture liquid added without cell plating were used as a negative control, whereas wells where culture liquid containing 0.1% DMSO instead of the compounds listed in Examples were used as a positive control.

LNCaP = test: Cell growth inhibition assay, prostate cancer cell line LNCaP (medium with 10 ng/mL IL-6); conditions: Homo sapiens, medium supplemented with 10 ng/mL of IL-6, 10,000 cells/well
Description: as §1

STAT3 = molecular target: T1, STAT3 (Homo sapiens, UniProt P40763); test: STAT3 reporter gene assay (luciferase), LNCaP stable cell line (pSTAT3-TA-luc), IL-6 stimulation
T1 construct: plasmid pSTAT3-TA-luc), which contains a stably operating STAT3 promoter; endogenous in cells
T1 sequence (P40763 whole entry): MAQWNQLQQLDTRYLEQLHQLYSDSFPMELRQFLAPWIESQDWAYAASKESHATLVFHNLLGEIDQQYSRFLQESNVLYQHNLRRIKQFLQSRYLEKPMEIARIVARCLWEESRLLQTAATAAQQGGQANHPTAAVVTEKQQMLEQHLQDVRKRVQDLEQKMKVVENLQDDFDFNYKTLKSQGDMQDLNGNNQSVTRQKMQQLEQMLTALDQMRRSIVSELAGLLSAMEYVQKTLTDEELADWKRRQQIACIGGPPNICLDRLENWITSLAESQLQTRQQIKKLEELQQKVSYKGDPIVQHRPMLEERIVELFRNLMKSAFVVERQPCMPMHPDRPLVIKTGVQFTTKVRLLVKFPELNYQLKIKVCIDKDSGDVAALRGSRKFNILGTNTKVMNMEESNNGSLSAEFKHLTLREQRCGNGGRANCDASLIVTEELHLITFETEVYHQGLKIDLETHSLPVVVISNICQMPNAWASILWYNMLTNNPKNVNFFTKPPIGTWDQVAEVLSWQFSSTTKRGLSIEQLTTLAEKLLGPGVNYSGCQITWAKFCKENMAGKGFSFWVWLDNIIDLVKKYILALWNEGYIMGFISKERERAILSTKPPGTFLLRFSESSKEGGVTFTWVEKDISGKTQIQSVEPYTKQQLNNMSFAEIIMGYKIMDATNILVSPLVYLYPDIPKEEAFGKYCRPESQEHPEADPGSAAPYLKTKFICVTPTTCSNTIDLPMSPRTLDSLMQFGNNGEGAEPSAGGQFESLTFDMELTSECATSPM
Description: 1-1) Experiment on the Inhibition of STAT3 Activity
A human prostate cancer cell line (LNCaP stable cell line; plasmid pSTAT3-TA-luc), which contains a stably operating STAT3 promoter, was cultured in RPMI1640 medium (Cat No. 11875, Life Technologies) containing 10% fetal bovine serum (FBS) (Cat No. SH30396, Thermo Scientific) and 150 μg/mL G-418 solution (Cat No. 04 727 894 001, Roche). The reporter gene assay using LNCaP stable cell line was performed in RPMI1640 medium containing 3% DCC-FBS without G-418 solution. LNCaP stable cells were plated in two (2) white 96-well plates with 30,000 cells/50 μL in each well. The cells were cultured at 37° C., under 5% CO2 for 24 hours, and then treated with the compounds listed in Examples which were diluted in various concentrations. Subsequently, IL-6 was added to each well with a final concentration of 10 ng/mL. Upon completion of the treatment with the compounds and IL-6, the cells were cultured at 37° C., under 5% CO2 for from 24 to 48 hours. The plates were observed under microscope and drug precipitation and particular findings were investigated and recorded.
The luciferase assay and the cell viability assay were performed respectively with one of the two plates. For the luciferase assay, the liquid media in the 96-well plate was removed, and then, 20 μL of passive cell lysis buffer was added to each well. After shaking the plate for 30 minutes, luciferase activities of each well were measured in a PHERAstar™ microplate reader (BMG LABTECH) using a luciferase assay system (Cat No. E1501, Promega). For the cell viability assay, the 96-well plate was placed at room temperature for 30 minutes, added with 20 μL/well of CellTiter-Glo solution (Cat No. G7573, Promega), and shaken for 10 minutes in order to measure cytotoxicity caused by the compounds listed in Examples with a PHERAstar™ microplate reader (BMG LABTECH). Wells without 0.1% DMSO and stimulation were used as a negative control and wells with 0.1% DMSO and stimulation were used as a positive control.

Row | Structure (SMILES) | IC50 (DU-145) [µM] | IC50 (LNCaP) [µM] | IC50 (STAT3) [µM]
1 | CC(C)(c1ccsc1)c1cc(Cl)cc(NC(=O)c2cc3cc(NS(C)(=O)=O)ccc3s2)c1 [Example 171, N-(3-chloro-5-(2-(thiophen-3-yl)propan-2-yl)phenyl)-5-(methylsulfonamido)benzo[b]thiophene-2-carboxamide] | 0.038 | 0.071 | 0.074
2 | COc1ccc(C(C)(C)c2cc(Cl)cc(NC(=O)c3cc4cc(NS(C)(=O)=O)ccc4s3)c2)s1 [Example 177, N-(3-chloro-5-(2-(5-methoxythiophen-2-yl)propan-2-yl)phenyl)-5-(methylsulfonamido)benzo[b]thiophene-2-carboxamide] | 0.058 | 0.089 | 0.047
3 | CC(C)(c1ccc(Cl)cc1)c1cc(Cl)cc(NC(=O)c2cc3cc(NS(C)(=O)=O)c(Cl)cc3s2)c1 [Example 172, 6-chloro-N-(3-chloro-5-(2-(4-chlorophenyl)propan-2-yl)phenyl)-5-(methylsulfonamido)benzo[b]thiophene-2-carboxamide] | 0.005 | 0.009 | 0.016
4 | CC(C)(c1cc(Cl)cc(NC(=O)c2cc3cc(NS(C)(=O)=O)c(Cl)cc3s2)c1)c1ccc(Cl)s1 [Example 175, 6-chloro-N-(3-chloro-5-(2-(5-chlorothiophen-2-yl)propan-2-yl)phenyl)-5-(methylsulfonamido)benzo[b]thiophene-2-carboxamide] | 0.005 | 0.016 | 0.007
5 | CCOc1cc(OC(F)(F)F)cc(C(C)(C)c2cc(Br)cc(NC(=O)c3cc4nc(NS(C)(=O)=O)ccc4s3)c2)c1 [Example 60, N-(3-bromo-5-(2-(3-ethoxy-5-(trifluoromethoxy)phenyl)propan-2-yl)phenyl)-5-(methylsulfonamido)thieno[3,2-b]pyridine-2-carboxamide] | 0.17 | 0.37 | 0.063
6 | CC(C)(c1cc(Cl)cc(NC(=O)c2cc3cc(NS(C)(=O)=O)ccc3s2)c1)c1ccc(Cl)s1 [Example 174, N-(3-chloro-5-(2-(5-chlorothiophen-2-yl)propan-2-yl)phenyl)-5-(methylsulfonamido)benzo[b]thiophene-2-carboxamide] | 0.033 | 0.091 | 0.1
7 | CC(C)(c1ccc(S(C)(=O)=O)cc1)c1cc(Cl)cc(NC(=O)c2cc3cc(NS(C)(=O)=O)ccc3s2)c1 [Example 161, N-(3-chloro-5-(2-(4-(methylsulfonyl)phenyl)propan-2-yl)phenyl)-5-(methylsulfonamido)benzo[b]thiophene-2-carboxamide] | 0.72 | > 1.1 | > 10
8 | COc1cc(OC(F)(F)F)cc(C(C)(C)c2cc(Br)cc(NC(=O)c3cc4cc(NS(C)(=O)=O)ncc4[nH]3)c2)c1 [Example 99, N-(3-bromo-5-(2-(3-methoxy-5-(trifluoromethoxy)phenyl)propan-2-yl)phenyl)-5-(methylsulfonamido)-1H-pyrrolo[2,3-c]pyridine-2-carboxamide 2,2,2-trifluoroacetate] | 0.8 | 1.5 | 0.22
9 | CC(C)Oc1cc(OC(F)(F)F)cc(C(C)(C)c2cc(Cl)cc(NC(=O)c3cc4cnc(NS(C)(=O)=O)cc4[nH]3)c2)c1 [Example 101, N-(3-chloro-5-(2-(3-isopropoxy-5-(trifluoromethoxy)phenyl)propan-2-yl)phenyl)-6-(methylsulfonamido)-1H-pyrrolo[3,2-c]pyridine-2-carboxamide] | 0.44 | 1.1 | 0.28
10 | CS(=O)(=O)Nc1cc2cc(C(=O)Nc3cc(Cl)cc(-c4ccc(F)cc4F)c3)sc2cc1Cl [Example 333, 6-chloro-N-(5-chloro-2′,4′-difluoro-[1,1′-biphenyl]-3-yl)-5-(methylsulfonamido)benzo[b]thiophene-2-carboxamide] | 0.004 | 0.015 | 0.016
11 | CC(C)Oc1cc(OC(F)(F)F)cc(C(C)(C)c2cc(Cl)cc(NC(=O)c3cc4cc(NS(C)(=O)=O)ccc4[s+]3[O-])c2)c1 (stereo not drawn) [Example 223, N-(3-chloro-5-(2-(3-isopropoxy-5-(trifluoromethoxy)phenyl)propan-2-yl)phenyl)-5-(methylsulfonamido)benzo[b]thiophene-2-carboxamide 1-oxide] | 0.005 | 0.17 | 0.24

Second part, the molecule after the results:

Row | IC50 (DU-145) [µM] | IC50 (LNCaP) [µM] | IC50 (STAT3) [µM] | Structure (SMILES)
12 | 0.43 | > 1.1 | 0.92 | CS(=O)(=O)Nc1ccc2sc(C(=O)Nc3cc(Cl)cc(-c4cnccn4)c3)cc2c1 [Example 338, N-(3-chloro-5-(pyrazin-2-yl)phenyl)-5-(methylsulfonamido)benzo[b]thiophene-2-carboxamide]
13 | 0.048 | 0.039 | 0.22 | CS(=O)(=O)Nc1ccc2sc(C(=O)Nc3cc(Cl)cc(Oc4cc(Cl)cc(OC(F)(F)F)c4)c3)cc2c1 [Example 467, N-(3-chloro-5-(3-chloro-5-(trifluoromethoxy)phenoxy)phenyl)-5-(methylsulfonamido)benzo[b]thiophene-2-carboxamide]
14 | 0.006 | 0.008 | 0.014 | CS(=O)(=O)Nc1cc2cc(C(=O)Nc3cc(Cl)cc(Oc4cccc(OC(F)(F)F)c4)c3)sc2cc1Cl [Example 479, 6-chloro-N-(3-chloro-5-(3-(trifluoromethoxy)phenoxy)phenyl)-5-(methylsulfonamido)benzo[b]thiophene-2-carboxamide]
15 | 0.59 | 0.79 | 0.36 | CS(=O)(=O)Nc1ccc2sc(C(=O)Nc3cc(Cl)cc(Oc4cccc(C#N)c4)c3)cc2c1 [Example 459, N-(3-chloro-5-(3-cyanophenoxy)phenyl)-5-(methylsulfonamido)benzo[b]thiophene-2-carboxamide]
16 | 0.022 | 0.059 | 0.048 | COc1cc(Cl)cc(Oc2cc(Cl)cc(NC(=O)c3cc4cc(NS(C)(=O)=O)c(Cl)cc4s3)c2)c1 [Example 474, 6-chloro-N-(3-chloro-5-(3-chloro-5-methoxyphenoxy)phenyl)-5-(methylsulfonamido)benzo[b]thiophene-2-carboxamide]
17 | 1.1 | 2.5 | 0.35 | Cc1cc(OC(C)C)cc(C(C)(C)c2cc(Cl)cc(NC(=O)c3cc4c(Br)c(NS(C)(=O)=O)ccc4s3)c2)c1 [Example 488, 4-bromo-N-(3-chloro-5-(2-(3-isopropoxy-5-methylphenyl)propan-2-yl)phenyl)-5-(methylsulfonamido)benzo[b]thiophene-2-carboxamide]
18 | 0.38 | > 1.1 | 0.129 | CS(=O)(=O)Nc1cc2sc(C(=O)Nc3cc(Cl)cc(Oc4ccc(Cl)cc4)c3)cc2cc1Cl [Example 485, 5-chloro-N-(3-chloro-5-(4-chlorophenoxy)phenyl)-6-(methylsulfonamido)benzo[b]thiophene-2-carboxamide]
19 | 0.065 | 0.13 | 0.096 | CS(=O)(=O)Nc1ccc2sc(C(=O)Nc3cc(Cl)cc(Oc4ccc(F)cc4)c3)cc2c1 [Example 446, N-(3-chloro-5-(4-fluorophenoxy)phenyl)-5-(methylsulfonamido)benzo[b]thiophene-2-carboxamide]

From US10562912B2 (C&C Research Laboratories, priority 2013, dated 2020)
